Source: paper PMC4572361, “Connecting proteins with drug-like compounds: Open source drug discovery workflows with BindingDB and KNIME” (Database: The Journal of Biological Databases and Curation, 2015)
Where two headings read alike, the source gives them in different places.

Target: T1, phospholipase A2
T1 construct: gene PLA2G1B; not described in the main text; reagent of the PubChem AID 588400 phospholipase counterscreen (possibly the PLA2 reporter enzyme of an ATG4B assay)
Assay: phospholipase inhibition assay (as PubChem AID […])
Assay type: biochemical, Homo sapiens

IC50 (read-out: no significant inhibition at concentrations up to 300 μM) [µM] | IC50 (read-out: IC50) [µM] | Compound
> 300 |  | O=C(O)c1ccccc1Nc1cc(Cl)ccc1C(=O)O [lobenzarit]
 | 20 | Cc1c(Cl)cccc1Nc1ccccc1C(=O)O [tolfenamic acid]
